In assay [1] the test system is NIH3T3. Description: Inhibition of serum-stimulated proliferation of mouse NIH3T3 cell line after 24 hrs. Format: functional, cell-based. The settings on record: NIH3T3, 24 h.
The target of assay [2] is Epidermal growth factor receptor (Homo sapiens, UniProt P00533). Description: Inhibition of EGFR tyrosine kinase.

Data on 15 compounds can be found in ChEMBL document CHEMBL1148637, “The combi-targeting concept: synthesis of stable nitrosoureas designed to inhibit the epidermal growth factor receptor (EGFR)” (J Med Chem, 2006).

Sequence of Epidermal growth factor receptor (P00533 whole entry): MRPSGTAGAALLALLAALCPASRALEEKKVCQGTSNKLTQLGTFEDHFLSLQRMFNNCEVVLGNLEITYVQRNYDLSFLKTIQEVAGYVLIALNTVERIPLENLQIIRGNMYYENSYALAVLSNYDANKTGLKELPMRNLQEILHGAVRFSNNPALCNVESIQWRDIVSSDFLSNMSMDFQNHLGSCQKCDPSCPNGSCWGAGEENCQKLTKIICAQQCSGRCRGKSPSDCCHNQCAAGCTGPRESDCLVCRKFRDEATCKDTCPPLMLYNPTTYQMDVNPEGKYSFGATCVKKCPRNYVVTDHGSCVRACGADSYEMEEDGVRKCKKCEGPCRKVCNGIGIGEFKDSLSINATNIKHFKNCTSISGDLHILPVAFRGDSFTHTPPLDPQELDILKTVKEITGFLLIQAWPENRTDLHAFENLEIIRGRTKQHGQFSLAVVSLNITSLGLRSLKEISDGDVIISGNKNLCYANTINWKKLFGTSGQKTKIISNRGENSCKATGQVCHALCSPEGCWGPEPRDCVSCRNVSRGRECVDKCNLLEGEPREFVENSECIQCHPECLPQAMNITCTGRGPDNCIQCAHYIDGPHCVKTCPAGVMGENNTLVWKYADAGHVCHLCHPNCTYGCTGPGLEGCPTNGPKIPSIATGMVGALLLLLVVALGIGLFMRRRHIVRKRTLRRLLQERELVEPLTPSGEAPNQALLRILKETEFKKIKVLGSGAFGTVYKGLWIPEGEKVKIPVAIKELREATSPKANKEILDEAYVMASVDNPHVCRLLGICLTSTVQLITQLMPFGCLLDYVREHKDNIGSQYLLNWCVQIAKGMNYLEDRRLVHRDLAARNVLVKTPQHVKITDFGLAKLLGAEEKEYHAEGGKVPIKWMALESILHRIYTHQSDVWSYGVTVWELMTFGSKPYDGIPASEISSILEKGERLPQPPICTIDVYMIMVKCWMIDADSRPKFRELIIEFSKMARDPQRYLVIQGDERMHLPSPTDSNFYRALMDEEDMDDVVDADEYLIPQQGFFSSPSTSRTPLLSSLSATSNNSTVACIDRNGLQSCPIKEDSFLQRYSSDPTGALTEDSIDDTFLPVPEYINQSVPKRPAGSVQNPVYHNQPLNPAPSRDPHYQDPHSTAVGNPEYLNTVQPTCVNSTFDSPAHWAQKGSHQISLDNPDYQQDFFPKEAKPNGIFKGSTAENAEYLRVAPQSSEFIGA

Usually IC50 stands for the midpoint of a concentration-inhibition curve. A higher IC50 goes with a need for much substance. With `O=C(NCCCl)Nc1ccc2ncnc(Nc3cccc(Br)c3)c2c1`, the results for the IC50 in assay [1] and in assay [2] were 35.9 µM and 0.018 µM, respectively. For the compound `Cc1cccc(Nc2ncnc3ccc(NC(=O)NCCCl)cc23)c1`, the half-inhibitory concentration (IC50) in assay [1] was determined as 31 µM; in assay [2] it was 0.676 µM. As for `CNc1ccc2ncnc(Nc3cccc(C)c3)c2c1`, the IC50 in assay [1] worked out at 42.8 µM; in assay [2] it was 0.011 µM. For `CNc1ccc2ncnc(Nc3cccc(Cl)c3)c2c1` the same measures were 49.8 µM and 0.004 µM. As for `Cc1cccc(Nc2ncnc3ccc(N(C)C(=O)N(CCCl)N=O)cc23)c1`, half-maximal inhibition in assay [1] (IC50) required 16.5 µM. Consider `CN(C(=O)N(CCCl)N=O)c1ccc2ncnc(Nc3cccc(Cl)c3)c2c1`, for which the half-maximal inhibitory concentration (IC50) in assay [1] turned out to be 11.7 µM; in assay [2] it was 0.204 µM. For `O=C(NCCCl)Nc1ccc2ncnc(Nc3cccc(Cl)c3)c2c1` the same measures were 157 µM and 0.022 µM. For `Cc1cccc(Nc2ncnc3ccc(NC(=O)N(CCCl)N=O)cc23)c1` the same measures were 78.5 µM and 1.06 µM. `O=NN(CCCl)C(=O)Nc1ccc2ncnc(Nc3cccc(Cl)c3)c2c1` had a 50% inhibitory concentration (IC50) in assay [1] of 157 µM. `O=NN(CCCl)C(=O)Nc1ccc2ncnc(Nc3cccc(Br)c3)c2c1`: the 50% inhibitory concentration (IC50) in assay [1] is 36.4 µM; in assay [2], 0.047 µM. Take `CN(C(=O)N(CCCl)N=O)c1ccc2ncnc(Nc3cccc(Br)c3)c2c1`: the results for the IC50 in assay [1] and in assay [2] were 10.8 µM and 0.294 µM, respectively.

With `Cc1cccc(Nc2ncnc3ccc(N)cc23)c1`, the IC50 in assay [1] came to 44.2 µM. Still for that read-out and setting: for `Nc1ccc2ncnc(Nc3cccc(Cl)c3)c2c1` the value was 97 µM. On to `CNc1ccc2ncnc(Nc3cccc(Br)c3)c2c1`, for which the values for the half-maximal inhibitory concentration (IC50) in assay [1] and in assay [2] were 17.6 µM and 0.005 µM, respectively. Turning to `Nc1ccc2ncnc(Nc3cccc(Br)c3)c2c1`, the IC50 in assay [1] came out at 26.7 µM.
